Source: US4540664A, “Method of saccharifying cellulose” (The United States of America as represented by the United …, priority 1983, dated 1985)

Tested on: extracellular cellulase of Clostridium thermocellum ATTC 27405
Test: Saccharification of Avicel by desalted cellulase, followed by the decrease in turbidity at 660 nm
Type: biochemical
Settings: Avicel substrate
Protocol: In these experiments 50 μg of the protein that had been desalted by passage through the gel filtration resin was incubated with 3 mg of the substrate in 3 ml of substrate buffer. The buffer was 0.1M succinic acid/NaOH with a pH of 5.5. The suspension was diluted to 5 ml. No Ca^2+ was added. The cellulase activity was monitored by the decrease in turbidity of the suspension measured at 660 nm. By this method, the turbidity of the suspension decreases as more cellulose is saccharified, and less light is absorbed.
The reaction conditions were the same as for the samples used in FIG. 1 except that each sample included 5 mM DTT and either no additions, 10 mM EDTA, 7 mM CaCl2, or 7 mM MgCl2.

| SMILES | effect of DTT on extent and duration of saccharification (2 mM DTT, no Ca2+ added, pH 5.5, compared with no reducing agent (FIG. 1)) | effect of DTT on rate of saccharification (5 mM DTT, no Ca2+ added, pH 5.5 (FIG. 1)) | effect of EDTA on saccharification (10 mM EDTA, 5 mM DTT, 0.1M succinic acid/NaOH pH 5.5 (FIG. 2)) |
| --- | --- | --- | --- |
| O[C@H](CS)[C@H](O)CS (racemic) [DTT, dithiothreitol] | saccharification continues over 90 hours and is much more extensive | rate of saccharification is greater |  |
| O=C(O)CN(CCN(CC(=O)O)CC(=O)O)CC(=O)O [EDTA] |  |  | completely inhibits saccharification |
